Among the data in patent publication US12281102B2, “Inhibitors of APOL1 and methods of using same” (Vertex Pharmaceuticals Incorporated, priority 2020, dated 2025) are IC50 values, retold here.

The first assay concerns the target T1, G1 APOL1 (Homo sapiens, UniProt O14791, I384M/S342G).
T1 construct: expressed in transfected cells
T1 sequence (O14791 28-398 S342G/I384M): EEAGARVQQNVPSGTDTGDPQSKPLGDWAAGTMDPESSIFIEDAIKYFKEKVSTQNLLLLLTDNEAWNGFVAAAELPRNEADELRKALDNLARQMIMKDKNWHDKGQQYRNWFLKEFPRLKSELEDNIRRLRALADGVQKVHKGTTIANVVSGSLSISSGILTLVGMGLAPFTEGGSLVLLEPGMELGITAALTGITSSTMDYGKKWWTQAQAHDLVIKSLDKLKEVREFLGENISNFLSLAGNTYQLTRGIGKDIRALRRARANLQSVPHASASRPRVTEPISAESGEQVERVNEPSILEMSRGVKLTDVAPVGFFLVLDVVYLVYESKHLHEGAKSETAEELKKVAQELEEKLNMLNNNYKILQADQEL
The assay can be described thus: Acute APOL1 Thallium Assay with inducible stable clones of HEK 293 cells. The class given is cell-based. The following applies: HEK 293 T-Rex inducible stable clone expressing G1 APOL1; read-out: Thallium Assay (IC50). An outline of the steps: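 A tetracycline-inducible HEK293 T-Rex clone (G1 DC3.25) expressing G1 APOL1 was plated at 26,000 cells/well, with tetracycline added at plating to induce expression. Cells were loaded with an AM-ester thallium-sensitive dye and stimulated with Tl+. Pore activity was read as the FLIPR Tetra fluorescence increase from Tl+ influx.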
`O=C(NC[C@H]1C[C@@H](c2c(-c3ccc(F)cc3)[nH]c3c(F)cc(F)cc32)C1)C1(O)CC1` [Compound 234]: the 50% inhibitory concentration (IC50) (in general, the midpoint of a concentration-inhibition curve) is more than 1000 nM.
In the case of `O=C1CC[C@@H](C(=O)NC[C@H]2C[C@H](c3c(-c4ccc(F)cc4)[nH]c4c(F)cc(F)cc43)C2)N1` [Compound 235], the IC50 is more than 1000 nM.
In the case of `C[C@@H](N)C(=O)NC[C@H]1C[C@H](c2c(-c3ccc(F)cc3)[nH]c3c(F)cc(F)cc32)C1` [Compound 236], the concentration for half-maximal inhibition (IC50) was more than 1000 nM.
Take `O=C1C[C@H](C(=O)NC[C@H]2C[C@H](c3c(-c4ccc(F)cc4)[nH]c4c(F)cc(F)cc43)C2)N1` [Compound 237]: the IC50 was more than 1000 nM.
On the same count and under the same terms, next, `O=C(Cc1cnccn1)NC[C@H]1C[C@H](c2c(-c3ccc(F)cc3)[nH]c3c(F)cc(F)cc32)C1` [Compound 238]: more than 1000 nM.
Regarding `CN1CCC(CC(=O)NC[C@H]2C[C@@H](c3c(-c4ccc(F)cc4)[nH]c4c(F)cc(F)cc43)C2)CC1` [Compound 239], the IC50 is more than 1000 nM.
Consider `CO[C@H](C)C(=O)NC[C@H]1C[C@H](c2c(-c3ccc(F)cc3)[nH]c3c(F)cc(F)cc32)C1` [Compound 240], for which the IC50 is more than 1000 nM.
Consider `O=C1C[C@@H](C(=O)NC[C@H]2C[C@@H](c3c(-c4ccc(F)cc4)[nH]c4c(F)cc(F)cc43)C2)N1` [Compound 241], for which the IC50 is more than 1000 nM.
For `NC(=O)CC(=O)NC[C@H]1C[C@@H](c2c(-c3ccc(F)cc3)[nH]c3c(F)cc(F)cc32)C1` [Compound 243], the IC50 is more than 1000 nM.
`NC1(C(=O)NC[C@H]2C[C@H](c3c(-c4ccc(F)cc4)[nH]c4c(F)cc(F)cc43)C2)CCC1` [Compound 244]: the 50% inhibitory concentration (IC50) was more than 1000 nM.
Still for that read-out and setting: in the case of `O=C(NC[C@H]1C[C@H](c2c(-c3ccc(F)cc3)[nH]c3c(F)cc(F)cc32)C1)[C@H]1CCN1` [Compound 245] it was more than 1000 nM.
As for `O=C(NC[C@H]1C[C@H](c2c(-c3ccc(F)cc3)[nH]c3c(F)cc(F)cc32)C1)[C@@H]1C[C@H](F)CN1` [Compound 246], the IC50 is more than 1000 nM.
As to `O=C(NC[C@H]1C[C@@H](c2c(-c3ccc(F)cc3)[nH]c3c(F)cc(F)cc32)C1)C(O)C1CC1` (stereo partly drawn) [Compound 247], the IC50 was more than 1000 nM.
On to `O=C(Cc1ncccn1)NC[C@H]1C[C@H](c2c(-c3ccc(F)cc3)[nH]c3c(F)cc(F)cc32)C1` [Compound 248], for which the IC50 is more than 1000 nM.
Still for that read-out and setting: in the case of `O=C1CC[C@H](C(=O)NC[C@H]2C[C@@H](c3c(-c4ccc(F)cc4)[nH]c4c(F)cc(F)cc43)C2)N1` [Compound 249] it was more than 1000 nM.
On to `CC(=O)NCC(=O)NC[C@H]1C[C@H](c2c(-c3ccc(F)cc3)[nH]c3c(F)cc(F)cc32)C1` [Compound 250], for which the IC50 is more than 1000 nM.
Turning to `O=C(Cc1ccncn1)NC[C@H]1C[C@H](c2c(-c3ccc(F)cc3)[nH]c3c(F)cc(F)cc32)C1` [Compound 251], the IC50 was more than 1000 nM.
Same read-out and setting: next, `CC(C)(C)OC(=O)N1C[C@@H](O)C[C@H]1C(=O)NC[C@H]1C[C@H](c2c(-c3ccc(F)cc3)[nH]c3c(F)cc(F)cc32)C1` [Compound 252]: more than 1000 nM; `O=C1CCC[C@@H](C(=O)NC[C@H]2C[C@H](c3c(-c4ccc(F)cc4)[nH]c4c(F)cc(F)cc43)C2)N1` [Compound 253]: more than 1000 nM; `O=C(NC[C@H]1C[C@H](c2c(-c3ccc(F)cc3)[nH]c3c(F)cc(F)cc32)C1)[C@@H]1C[C@H](O)CN1` [Compound 254]: more than 1000 nM.
On to `CC(C)(C)OC(=O)N1CC[C@H](O)[C@H]1C(=O)NC[C@H]1C[C@H](c2c(-c3ccc(F)cc3)[nH]c3c(F)cc(F)cc32)C1` [Compound 255], for which the concentration for half-maximal inhibition (IC50) was more than 1000 nM.
With `CC(=O)N1CC[C@@H](C(=O)NC[C@H]2C[C@H](c3c(-c4ccc(F)cc4)[nH]c4c(F)cc(F)cc43)C2)C1` [Compound 256], the IC50 is more than 1000 nM.
As for `O=C(NC[C@H]1C[C@H](c2c(-c3ccc(F)cc3)[nH]c3c(F)cc(F)cc32)C1)[C@H]1COCCN1` [Compound 257], the half-maximal inhibitory concentration (IC50) is more than 1000 nM.
The same measure, in the same setting: in the case of `CC[C@H](NC(=O)OC(C)(C)C)C(=O)NC[C@H]1C[C@H](c2c(-c3ccc(F)cc3)[nH]c3c(F)cc(F)cc32)C1` [Compound 258] it was more than 1000 nM; in that of `CN1CCC(CC(=O)NC[C@H]2C[C@@H](c3c(-c4ccc(F)cc4)[nH]c4c(F)cc(F)cc43)C2)C1` (stereo partly drawn) [Compound 260], more than 1000 nM; in that of `O=C(CC1CS(=O)(=O)C1)NC[C@H]1C[C@H](c2c(-c3ccc(F)cc3)[nH]c3c(F)cc(F)cc32)C1` [Compound 261], more than 1000 nM.
For `CS(=O)(=O)CCC(=O)NC[C@H]1C[C@@H](c2c(-c3ccc(F)cc3)[nH]c3c(F)cc(F)cc32)C1` [Compound 262], the IC50 was more than 1000 nM.
Turning to `CCS(=O)(=O)NCC(=O)NC[C@H]1C[C@@H](c2c(-c3ccc(F)cc3)[nH]c3c(F)cc(F)cc32)C1` [Compound 263], the IC50 was more than 1000 nM.
For `N[C@@H](C(=O)NC[C@H]1C[C@H](c2c(-c3ccc(F)cc3)[nH]c3c(F)cc(F)cc32)C1)C1CC1` [Compound 264], the IC50 is more than 1000 nM.
Turning to `O=C(NC[C@H]1C[C@H](c2c(-c3ccc(F)cc3)[nH]c3c(F)cc(F)cc32)C1)c1ncccn1` [Compound 265], the IC50 was more than 1000 nM.
As for `CC(F)(F)C(=O)NC[C@H]1C[C@@H](c2c(-c3ccc(F)cc3)[nH]c3c(F)cc(F)cc32)C1` [Compound 266], the IC50 is more than 1000 nM.
`CC[C@@H](N)C(=O)NC[C@H]1C[C@H](c2c(-c3ccc(F)cc3)[nH]c3c(F)cc(F)cc32)C1` [Compound 267]: the IC50 was more than 1000 nM.
In the case of `O=C1CC[C@H](C(=O)NC[C@H]2C[C@H](c3c(-c4ccc(F)cc4)[nH]c4c(F)cc(F)cc43)C2)N1` [Compound 268], the IC50 is more than 1000 nM.
On to `O=C1NCC(C(=O)NC[C@H]2C[C@H](c3c(-c4ccc(F)cc4)[nH]c4c(F)cc(F)cc43)C2)O1` (stereo partly drawn) [Compound 269], for which the IC50 is more than 1000 nM.
On to `CO[C@@H](C)C(=O)NC[C@H]1C[C@H](c2c(-c3ccc(F)cc3)[nH]c3c(F)cc(F)cc32)C1` [Compound 270], for which the IC50 was more than 1000 nM.
Consider `CS(=O)(=O)NCC(=O)NC[C@H]1C[C@@H](c2c(-c3ccc(F)cc3)[nH]c3c(F)cc(F)cc32)C1` [Compound 271], for which the IC50 is more than 1000 nM.
In the case of `O=C(CN1CCOCC1)NC[C@H]1C[C@@H](c2c(-c3ccc(F)cc3)[nH]c3c(F)cc(F)cc32)C1` [Compound 272], the IC50 was more than 1000 nM.
Still for that read-out and setting: next, `O=C1CC(C(=O)NC[C@H]2C[C@H](c3c(-c4ccc(F)cc4)[nH]c4c(F)cc(F)cc43)C2)CN1` (stereo partly drawn) [Compound 273]: more than 1000 nM.
`CC(=O)N1CC[C@H](C(=O)NC[C@H]2C[C@H](c3c(-c4ccc(F)cc4)[nH]c4c(F)cc(F)cc43)C2)C1` [Compound 274]: the IC50 was more than 1000 nM.
On the same count and under the same terms, next, `O=C(NC[C@H]1C[C@H](c2c(-c3ccc(F)cc3)[nH]c3c(F)cc(F)cc32)C1)[C@H]1C[C@@H](O)CN1` [Compound 275]: more than 1000 nM; `O=C(NC[C@H]1C[C@H](c2c(-c3ccc(F)cc3)[nH]c3c(F)cc(F)cc32)C1)[C@@H]1COCCN1` [Compound 276]: more than 1000 nM; `CC(C)(C)OC(=O)N[C@@H](C(=O)NC[C@H]1C[C@H](c2c(-c3ccc(F)cc3)[nH]c3c(F)cc(F)cc32)C1)C1CC1` [Compound 277]: more than 1000 nM.
Take `Cn1ccc(CC(=O)NC[C@H]2C[C@@H](c3c(-c4ccc(F)cc4)[nH]c4c(F)cc(F)cc43)C2)n1` [Compound 278]: the IC50 is more than 1000 nM.
Same read-out and setting: in the case of `NS(=O)(=O)CCCC(=O)NC[C@H]1C[C@@H](c2c(-c3ccc(F)cc3)[nH]c3c(F)cc(F)cc32)C1` [Compound 280] it was more than 1000 nM; in that of `O=C(NC[C@H]1C[C@H](c2c(-c3ccc(F)cc3)[nH]c3c(F)cc(F)cc32)C1)[C@H]1CCCN1` [Compound 282], more than 1000 nM.
As to `O=C(NC[C@H]1C[C@H](c2c(-c3ccc(F)cc3)[nH]c3c(F)cc(F)cc32)C1)C1(O)CC1` [Compound 283], the concentration for half-maximal inhibition (IC50) was more than 1000 nM.
On the same count and under the same terms, next, `CC1(C(=O)NC[C@H]2C[C@@H](c3c(-c4ccc(F)cc4)[nH]c4c(F)cc(F)cc43)C2)CC(=O)C1` [Compound 284]: more than 1000 nM; `O=C(CC1CC(=O)NC(=O)C1)NC[C@H]1C[C@@H](c2c(-c3ccc(F)cc3)[nH]c3c(F)cc(F)cc32)C1` [Compound 285]: more than 1000 nM.
For `CC(C)(C)OC(=O)NC1(C(=O)NC[C@H]2C[C@H](c3c(-c4ccc(F)cc4)[nH]c4c(F)cc(F)cc43)C2)CCC1` [Compound 286], the IC50 is more than 1000 nM.
On to `O=C1CC(C(=O)NC[C@H]2C[C@H](c3c(-c4ccc(F)cc4)[nH]c4c(F)cc(F)cc43)C2)C(=O)N1` (stereo partly drawn) [Compound 287], for which the IC50 is more than 1000 nM.
Turning to `O=C(NC[C@H]1C[C@H](c2c(-c3ccc(F)cc3)[nH]c3c(F)cc(F)cc32)C1)c1ccncn1` [Compound 288], the IC50 is more than 1000 nM.
Regarding `C[C@@]1(C(=O)NC[C@H]2C[C@H](c3c(-c4ccc(F)cc4)[nH]c4c(F)cc(F)cc43)C2)CCCN1` [Compound 289], the IC50 was more than 1000 nM.
Turning to `O=C(NC[C@H]1C[C@H](c2c(-c3ccc(F)cc3)[nH]c3c(F)cc(F)cc32)C1)c1n[nH]c(=O)[nH]1` [Compound 290], the IC50 is more than 1000 nM.

Still in this assay, the particulars now being: Thallium Assay (IC50), HEK 293 T-Rex inducible stable clone expressing G1 APOL1.
For `CC(C)(C)OC(=O)N1CCC[C@@H]1C(=O)NC[C@H]1C[C@H](c2c(-c3ccc(F)cc3)[nH]c3c(F)cc(F)cc32)C1` [Compound 279], the IC50 was more than 1000 nM.
